Results on 20 molecules are retold here after patent US20180057507A1, “INHIBITORS OF DUAL LEUCINE ZIPPER (DLK) KINASE FOR THE TREATMENT OF DISEASE” (Board of Regents, The University of Texas System, priority 2016, published 2018).

Assay [1] addresses T1, human DLK (Homo sapiens, UniProt Q12852).
T1 sequence (Q12852 1-859): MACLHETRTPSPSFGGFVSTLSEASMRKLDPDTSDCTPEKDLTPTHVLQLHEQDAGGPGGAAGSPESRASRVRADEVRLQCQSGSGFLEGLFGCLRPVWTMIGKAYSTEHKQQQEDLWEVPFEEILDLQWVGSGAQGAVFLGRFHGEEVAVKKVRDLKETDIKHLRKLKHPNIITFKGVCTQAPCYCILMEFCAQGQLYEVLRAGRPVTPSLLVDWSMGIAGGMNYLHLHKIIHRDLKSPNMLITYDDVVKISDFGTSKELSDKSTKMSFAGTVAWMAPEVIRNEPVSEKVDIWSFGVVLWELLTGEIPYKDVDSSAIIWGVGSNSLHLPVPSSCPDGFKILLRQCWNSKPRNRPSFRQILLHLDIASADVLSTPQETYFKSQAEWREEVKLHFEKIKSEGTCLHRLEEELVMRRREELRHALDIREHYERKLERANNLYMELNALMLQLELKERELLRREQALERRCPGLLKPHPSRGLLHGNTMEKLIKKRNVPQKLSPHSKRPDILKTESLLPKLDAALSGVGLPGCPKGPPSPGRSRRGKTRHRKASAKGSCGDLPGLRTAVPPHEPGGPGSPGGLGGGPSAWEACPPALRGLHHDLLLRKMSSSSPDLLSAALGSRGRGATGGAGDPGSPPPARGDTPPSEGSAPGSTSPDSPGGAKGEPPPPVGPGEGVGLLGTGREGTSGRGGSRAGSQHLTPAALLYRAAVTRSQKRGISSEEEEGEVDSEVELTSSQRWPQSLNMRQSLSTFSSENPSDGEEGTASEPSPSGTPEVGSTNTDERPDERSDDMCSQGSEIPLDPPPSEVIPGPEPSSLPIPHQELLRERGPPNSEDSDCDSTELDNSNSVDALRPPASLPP
Nature of the assay: DLK Kd Determinations (KINOMEscan KdELECT, DiscoveRx). Set-up: full length of human DLK (amino acids 1-859); host or cells: transiently transfected HEK293 cells; unpurified extract. The following applies: fusion protein of full length human DLK (amino acids 1-859) and NFkB DNA binding domain; qPCR readout; duplicate. An outline of the steps:
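Competition binding of full-length human DLK (aa 1-859)-NFkB DBD fusion, DNA-tagged, from HEK293 extracts against an immobilized ligand; 1 h at room temperature, 0.9% DMSO. Bead-bound kinase was quantified by qPCR. Kd came from an 11-point 3-fold series (top 30,000 nM), in duplicate, with Hill slope fixed at −1.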

The target in assay [2] is T1, human DLK. Nature of the assay: Phospho-cJun Cellular Assay. It is filed as cell-based. On the set-up: expressed in transfected cells. The following applies: HEK293 cells stably transfected with Dox-inducible human DLK; p-cJun (Ser63); 5 h compound incubation. The method, boiled down: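 HEK293 cells with doxycycline-induced human DLK (induced 20 h; uninduced cells as negative control) treated with compound for 5 h at 37 °C. Phospho-cJun (Ser63) measured in lysates with detection-antibody kit; IC50 from variable-slope dose-response fit.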

A word on the Kd: it is the free concentration of one partner at which half of the binding sites on the other are occupied at equilibrium, for simple one-to-one binding. Higher therefore signals a looser complex. By IC50 is commonly meant the concentration needed to halve the response being measured.

For `CCCc1nc(-c2cnc(N)c(C(F)(F)F)c2)cn1[C@H]1[C@@H]2CN(CCF)C[C@@H]21` [Example 84, 5-(1-((1R,5S,6s)-3-(2-fluoroethyl)-3-azabicyclo[3.1.0]hexan-6-yl)-2-propyl-1H-imidazol-4-yl)-3-(trifluoromethyl)pyridin-2-amine], the Kd at human DLK [1] is 160 nM. In addition, the IC50 on human DLK [2] amounted to 1610 nM.
`CC(C)(C)Cc1nc(-c2cnc(N)c(C(F)(F)F)c2)cn1[C@H]1[C@@H]2CN(CCF)C[C@@H]21` [Example 85, 5-(1-((1R,5S,6s)-3-(2-fluoroethyl)-3-azabicyclo[3.1.0]hexan-6-yl)-2-neopentyl-1H-imidazol-4-yl)-3-(trifluoromethyl)pyridin-2-amine]: the affinity at human DLK [1], expressed as Kd, was 60 nM. For the same molecule, the IC50 against human DLK [2] is 594 nM.
The matching figures for `Nc1ncc(-c2cn([C@H]3[C@@H]4CN(C5CCOCC5)C[C@@H]43)c(CC3CC3)n2)cc1OC(F)F` [Example 88, 5-(2-(cyclopropylmethyl)-1-((1R,5S,6s)-3-(tetrahydro-2H-pyran-4-yl)-3-azabicyclo[3.1.0]hexan-6-yl)-1H-imidazol-4-yl)-3-(difluoromethoxy)pyridin-2-amine]: 71 nM and 994 nM.
The matching figures for `Nc1ncc(-c2cn([C@H]3[C@@H]4CNC[C@@H]43)c(CC3CC3)n2)cc1OC(F)(F)F` [Example 90, 5-(1-((1R,5S,6s)-3-azabicyclo[3.1.0]hexan-6-yl)-2-(cyclopropylmethyl)-1H-imidazol-4-yl)-3-(trifluoromethoxy)pyridin-2-amine]: 40 nM and 1120 nM.
For `Nc1ncc(-c2cn([C@H]3[C@@H]4CN(C5COC5)C[C@@H]43)c(CC3CC3)n2)cc1OC(F)(F)F` [Example 92, 5-(2-(cyclopropylmethyl)-1-((1R,5S,6s)-3-(oxetan-3-yl)-3-azabicyclo[3.1.0]hexan-6-yl)-1H-imidazol-4-yl)-3-(trifluoromethoxy)pyridin-2-amine], at human DLK [1], the Kd amounted to 55 nM. For the same molecule, on human DLK [2], the IC50 came to 1820 nM.
As for `COCCN1C[C@@H]2[C@H](C1)[C@H]2n1cc(-c2cnc(N)c(C(F)(F)F)c2)nc1C1CC1` [Example 94, 5-(2-cyclopropyl-1-((1R,5S,6s)-3-(2-methoxyethyl)-3-azabicyclo[3.1.0]hexan-6-yl)-1H-imidazol-4-yl)-3-(trifluoromethyl)pyridin-2-amine], binding on human DLK [1] was characterised by a dissociation constant (Kd) of 61 nM. In addition, the IC50 at human DLK [2] amounted to 1960 nM.
For `Nc1ncc(-c2cn([C@H]3[C@@H]4CN(CCF)C[C@@H]43)c(C3CC3)n2)cc1C(F)(F)F` [Example 95, 5-(2-cyclopropyl-1-((1R,5S,6s)-3-(2-fluoroethyl)-3-azabicyclo[3.1.0]hexan-6-yl)-1H-imidazol-4-yl)-3-(trifluoromethyl)pyridin-2-amine], the Kd on human DLK [1] stood at 12.3 nM. The molecule also registered an IC50 at human DLK [2] of 1200 nM.
For the molecule `Nc1ncc(-c2cn([C@H]3[C@@H]4CN(C5CCOCC5)C[C@@H]43)c(CC3CC3)n2)cc1OC(F)(F)F` [Example 97, 5-(2-(cyclopropylmethyl)-1-((1R,5S,6s)-3-(tetrahydro-2H-pyran-4-yl)-3-azabicyclo[3.1.0]hexan-6-yl)-1H-imidazol-4-yl)-3-(trifluoromethoxy)pyridin-2-amine], on human DLK [1], the Kd was 57 nM. Further, the 50% inhibitory concentration (IC50) against human DLK [2] is 1900 nM.
For the molecule `Nc1ncc(-c2cn([C@H]3[C@@H]4CN(C5CCOCC5)C[C@@H]43)c(C3CC3)n2)cc1OC(F)F` [Example 105, 5-(2-cyclopropyl-1-((1R,5S,6s)-3-(tetrahydro-2H-pyran-4-yl)-3-azabicyclo[3.1.0]hexan-6-yl)-1H-imidazol-4-yl)-3-(difluoromethoxy)pyridin-2-amine], at human DLK [1], the dissociation constant Kd amounted to 79 nM. The molecule further gave an IC50 at human DLK [2] of 1900 nM.
`Nc1ncc(-c2cn([C@H]3[C@@H]4CN(CCF)C[C@@H]43)c(CC3CC3)n2)cc1OC(F)F` [Example 116, 5-(2-(cyclopropylmethyl)-1-((1R,5S,6s)-3-(2-fluoroethyl)-3-azabicyclo[3.1.0]hexan-6-yl)-1H-imidazol-4-yl)-3-(difluoromethoxy)pyridin-2-amine] came in with a Kd at human DLK [1] of 53 nM. For the same molecule, the IC50 against human DLK [2] turned out to be 1440 nM.
In the case of `COCCN1C[C@@H]2[C@H](C1)[C@H]2n1cc(-c2cnc(N)c(OC(F)F)c2)nc1CC1CC1` [Example 117, 5-(2-(cyclopropylmethyl)-1-((1R,5S,6s)-3-(2-methoxyethyl)-3-azabicyclo[3.1.0]hexan-6-yl)-1H-imidazol-4-yl)-3-(difluoromethoxy)pyridin-2-amine], the affinity at human DLK [1], expressed as Kd, was 48 nM. Also, the IC50 on human DLK [2] was 987 nM.
On to `Nc1ncc(-c2cn([C@H]3[C@@H]4CN(C5CCOCC5)C[C@@H]43)c(CC(F)(F)F)n2)cc1C(F)(F)F` [Example 119, 5-(1-((1R,5S,6s)-3-(tetrahydro-2H-pyran-4-yl)-3-azabicyclo[3.1.0]hexan-6-yl)-2-(2,2,2-trifluoroethyl)-1H-imidazol-4-yl)-3-(trifluoromethyl)pyridin-2-amine], for which, at human DLK [1], the equilibrium dissociation constant (Kd) stood at 71 nM. Further, the IC50 on human DLK [2] is 1850 nM.
Consider `COCCN1C[C@@H]2[C@H](C1)[C@H]2n1cc(-c2cnc(N)c(C(F)(F)F)c2)nc1CC(F)(F)F` [Example 121, 5-(1-((1R,5S,6s)-3-(2-methoxyethyl)-3-azabicyclo[3.1.0]hexan-6-yl)-2-(2,2,2-trifluoroethyl)-1H-imidazol-4-yl)-3-(trifluoromethyl)pyridin-2-amine], for which the Kd on human DLK [1] is 49 nM. The molecule also came in with an IC50 on human DLK [2] of 1590 nM.
Consider `CCC(CC)c1nc(-c2cnc(N)c(C(F)(F)F)c2)cn1[C@H]1[C@@H]2CN(CCF)C[C@@H]21` [Example 125, 5-(1-((1R,5S,6s)-3-(2-fluoroethyl)-3-azabicyclo[3.1.0]hexan-6-yl)-2-(pentan-3-yl)-1H-imidazol-4-yl)-3-(trifluoromethyl)pyridin-2-amine], for which the Kd on human DLK [1] was 120 nM. The molecule also returned an IC50 against human DLK [2] of 1290 nM.
`CC(C)Cc1nc(-c2cnc(N)c(C(F)(F)F)c2)cn1[C@H]1[C@@H]2CN(CCF)C[C@@H]21` [Example 126, 5-(1-((1R,5S,6s)-3-(2-fluoroethyl)-3-azabicyclo[3.1.0]hexan-6-yl)-2-isobutyl-1H-imidazol-4-yl)-3-(trifluoromethyl)pyridin-2-amine] returned a Kd at human DLK [1] of 34 nM. At human DLK [2], this molecule gave a 50% inhibitory concentration (IC50) of 823 nM.
On human DLK [1], `CC(C)c1nc(-c2cnc(N)c(C(F)(F)F)c2)cn1[C@H]1[C@@H]2CC(N3CCCOCC3)C[C@@H]21` (stereo partly shown) [Example 130, 5-(1-(3-(1,4-oxazepan-4-yl)bicyclo[3.1.0]hexan-6-yl)-2-isopropyl-1H-imidazol-4-yl)-3-(trifluoromethyl)pyridin-2-amine] displayed a dissociation constant (Kd) of 25 nM. This molecule had an IC50 at human DLK [2] of 1760 nM.
The molecule `CC(C)c1nc(-c2cnc(N)c(C(F)(F)F)c2)cn1[C@H]1[C@@H]2CC(N3CCOC[C@@H]3C)C[C@@H]21` (stereo partly drawn) [Example 131, 5-(2-isopropyl-1-(3-((S)-3-methylmorpholino)bicyclo[3.1.0]hexan-6-yl)-1H-imidazol-4-yl)-3-(trifluoromethyl)pyridin-2-amine] registered an equilibrium dissociation constant (Kd) at human DLK [1] of 34 nM. The molecule also yielded a half-maximal inhibitory concentration (IC50) against human DLK [2] of 1390 nM.
Taken in the same sequence, the figures for `CC(C)c1nc(-c2cnc(N)c(C(F)(F)F)c2)cn1[C@H]1[C@@H]2CC(N3CCN(C)CC3)C[C@@H]21` (stereo partly shown) [Example 132, 5-(2-isopropyl-1-(3-(4-methylpiperazin-1-yl)bicyclo[3.1.0]hexan-6-yl)-1H-imidazol-4-yl)-3-(trifluoromethyl)pyridin-2-amine] were 22 nM and 909 nM.
Taken in the same sequence, the figures for `CN1CCN(C2C[C@@H]3[C@H](C2)[C@H]3n2cc(-c3cnc(N)c(OC(F)(F)F)c3)nc2C2CC2)CC1` (stereo partly shown) [Example 135, 5-(2-cyclopropyl-1-(3-(4-methylpiperazin-1-yl)bicyclo[3.1.0]hexan-6-yl)-1H-imidazol-4-yl)-3-(trifluoromethoxy)pyridin-2-amine] were 17 nM and 346 nM.
On human DLK [1], `Nc1ncc(-c2cn([C@H]3[C@@H]4CC(N5CCCOCC5)C[C@@H]43)c(C3CC3)n2)cc1OC(F)(F)F` (stereo partly shown) [Example 136, 5-(1-(3-(1,4-oxazepan-4-yl)bicyclo[3.1.0]hexan-6-yl)-2-cyclopropyl-1H-imidazol-4-yl)-3-(trifluoromethoxy)pyridin-2-amine] came in with a Kd of 20 nM. In addition, the IC50 on human DLK [2] was found to be 662 nM.
